The values below are quoted from earlier work in article PMC9389927 (Renal Failure, 2022).

The data set concerns experimental model of AKI.

For the substance “IGF-1: long-chain polypeptide composed of dozens of amino acids, including four domains, A, B, C and D”, the Glomerular filtration rate result was “increased the glomerular filtration rate”.
